Test [1] concerns the target Human immunodeficiency virus type 1 integrase (Human immunodeficiency virus 1) (UniProt Q7ZJM1). Description: Inhibitory activity against 3'-processing by HIV-1 Integrase at 100 uM.
Test [2] has the same target. The experiment in a line: Inhibitory activity against strand transfer by HIV-1 Integrase at 100 uM.
Test [3] has as its target T1, Human immunodeficiency virus type 1 integrase (Human immunodeficiency virus 1, UniProt Q7ZJM1). The experiment in a line: Inhibitory concentration against Strand transfer by HIV -1 Integrase.
The target in test [4] is T1, Human immunodeficiency virus type 1 integrase. The experiment in a line: Inhibitory concentration against 3'-processing by HIV -1 Integrase.

The source of these data is ChEMBL document CHEMBL1129070, “(-)-Arctigenin as a lead structure for inhibitors of human immunodeficiency virus type-1 integrase” (J Med Chem, 1996).

Sequence of Human immunodeficiency virus type 1 integrase (Human immunodeficiency virus 1) (Q7ZJM1 as listed by the source): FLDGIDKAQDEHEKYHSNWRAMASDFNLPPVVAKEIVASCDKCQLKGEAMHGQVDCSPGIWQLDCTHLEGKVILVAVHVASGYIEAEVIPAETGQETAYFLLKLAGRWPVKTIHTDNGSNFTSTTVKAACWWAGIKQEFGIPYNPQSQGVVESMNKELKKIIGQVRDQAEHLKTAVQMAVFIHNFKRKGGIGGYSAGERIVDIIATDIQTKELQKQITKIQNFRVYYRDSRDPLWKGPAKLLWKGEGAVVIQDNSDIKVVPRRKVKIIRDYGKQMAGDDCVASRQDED
T1 sequence (Q7ZJM1 whole entry): as the sequence (Q7ZJM1 as listed by the source) above

Take `COc1cc(C[C@H]2C(=O)OC[C@@H]2Cc2ccc(OC)c(OC)c2)ccc1O`: the inhibition in test [1] and in test [2] was under 5% throughout.

As for `COc1cc(C[C@@H](CO)[C@H](CO)Cc2ccc(OC)c(OC)c2)ccc1O`, the inhibition in test [1] and in test [2] was under 5% throughout.

For `O=C1OC[C@H](Cc2ccc(O)c(O)c2)[C@H]1Cc1ccc(O)c(O)c1`, the 50% inhibitory concentration (IC50) in test [3] stood at 5.4 µM; in test [4], 21.4 µM. Besides, the inhibition in test [1] stood at 92%; in test [2], 100%.

Consider `COc1ccc(C[C@@H](CO)[C@@H](Cc2ccc(O)c(O)c2)C(=O)NCc2ccccc2)cc1OC`, for which the inhibition in test [1] and in test [2] was under 5% in each case.

Take `COc1cc(C[C@H]2COC(=O)[C@@H]2Cc2ccc(O)c(OC)c2)ccc1O`: the inhibition in test [1] and in test [2] was under 5% each time.

For `COc1ccc(C[C@H]2COC(=O)[C@@H]2Cc2cccc(O)c2)cc1OC`, the inhibition in test [1] and in test [2] was under 5% throughout.

In the case of `COc1cc(C[C@H]2C(=O)CC[C@@H]2Cc2ccc(OC)c(OC)c2)ccc1O`, the inhibition in test [1] and in test [2] was under 5% each time.

Take `COc1ccc(C[C@H]2COC(=O)[C@@H]2Cc2ccc(O)c(O)c2)cc1OC`: the inhibition in test [1] amounted to 37%; in test [2], 52%.

With `COc1ccc(C[C@H]2CCC(=O)[C@@H]2Cc2ccc(O)c(O)c2)cc1OC`, the inhibition in test [1] and in test [2] was under 5% each time.

For `O=C1OC[C@H](Cc2ccc3c(c2)OCO3)[C@H]1Cc1cccc(O)c1`, the inhibition in test [1] and in test [2] was under 5% each time.

For `COc1cc(C[C@@H](CO)[C@H](CO)Cc2ccc(O)c(OC)c2)ccc1O`, the inhibition in test [1] and in test [2] was under 5% each time.

Take `COc1cc(C[C@H]2COC[C@@H]2Cc2ccc(OC)c(OC)c2)ccc1O`: the inhibition in test [1] and in test [2] was under 5% throughout.

With `O=C1OC[C@H](Cc2ccc3c(c2)OCO3)[C@H]1Cc1ccccc1`, the inhibition in test [1] and in test [2] was under 5% in each case.

Turning to `COc1cc(C[C@H]2COC[C@@H]2Cc2ccc(O)c(OC)c2)ccc1O`, the inhibition in test [1] and in test [2] was under 5% each time.

Regarding `COc1cc(C[C@@H](C(=O)NCc2ccccc2)[C@H](CO)Cc2ccc(OC)c(OC)c2)ccc1O`, the inhibition in test [1] and in test [2] was under 5% in each case.

For `COc1ccc(C[C@@H](CO)[C@H](CO)Cc2ccc(O)c(O)c2)cc1OC`, the inhibition in test [1] and in test [2] was under 5% in each case.

Turning to `COc1cc([C@@H]2c3cc4c(cc3[C@H](O)[C@H]3COC(=O)[C@@H]23)OCO4)cc(OC)c1O`, the inhibition in test [1] and in test [2] was under 5% in each case.

On to `COc1cc([C@@H]2c3cc4c(c(O)c3C[C@H]3COC(=O)[C@H]32)OCO4)cc(OC)c1OC`, for which the inhibition in test [1] and in test [2] was under 5% throughout.

For `COc1cc([C@@H]2c3cc4c(c(O)c3C[C@H]3COC(=O)[C@@H]32)OCO4)cc(OC)c1O`, the inhibition in test [1] and in test [2] was under 5% in each case.

For the molecule `COc1ccc(C[C@H]2COC(=O)[C@@H]2Cc2ccc(O)cc2)cc1OC`, the inhibition in test [1] and in test [2] was under 5% in each case.

On to `O=C1OC[C@H](Cc2ccc3c(c2)OCO3)[C@H]1Cc1ccc(O)cc1`, for which the inhibition in test [1] and in test [2] was under 5% in each case.

Consider `COc1cc([C@@H]2c3cc4c(cc3C(O)[C@H]3COC(=O)[C@H]23)OCO4)cc(O)c1O` (stereo not given in full), for which the inhibition in test [1] and in test [2] was under 5% throughout.

Take `COc1cc(C[C@H]2C(=O)OC[C@@H]2Cc2ccc(O)c(O)c2)ccc1O`: the inhibition is under 5% in test [1] and 41% in test [2].

For `COc1cc([C@@H]2c3cc4c(cc3[C@H](O)[C@H]3COC(=O)[C@H]23)OCO4)cc(OC)c1O`, the inhibition in test [1] and in test [2] was under 5% in each case.

For the molecule `COc1ccc(C[C@H]2COC(=O)[C@@H]2Cc2ccccc2)cc1OC`, the inhibition in test [1] and in test [2] was under 5% throughout.

For `COc1ccc(C[C@H]2COC(=O)[C@@H]2Cc2cc(O)c(O)c(O)c2)cc1OC`, the inhibition in test [1] and in test [2] was under 5% throughout.

In the case of `COc1ccc(C[C@H]2COC[C@@H]2Cc2ccc(O)c(O)c2)cc1OC`, the inhibition in test [1] and in test [2] was under 5% in each case.

As for `COc1cc([C@@H]2c3cc4c(c(O)c3C[C@H]3COC(=O)[C@@H]32)OCO4)cc(OC)c1OC`, the inhibition in test [1] and in test [2] was under 5% throughout.

As to `COc1cc([C@@H]2c3cc4c(c(O)c3C[C@H]3COC(=O)[C@H]32)OCO4)cc(OC)c1O`, the inhibition in test [1] and in test [2] was under 5% throughout.
